In article PMC7849180 (Frontiers in Pharmacology, 2020):

Key:
[1] = tested on: primary cells harboring the JAK2V617F mutation in patients with polycythemia vera; test: Colony forming of erythroid hematopoietic cells of polycythemia vera patients; type: cell-based, human; details: 1 μM
Text: (§1) Suzhou Zelgen Biopharmaceuticals Co., Ltd. Jaktinib Hydrochloride Tablets Chemical Drug Class 1 New Drug and ZG0178. However, the inhibitory effect on the activity of Ba/F3-EpoR cell line […]
(§2) respectively. Obviously, this selective inhibition is associated with the aberrant expression of JAK2 in Ba/F3-EpoR-JAK2V617F mutant cells, and the degree of ZG0163 inhibition on JAK-STAT signaling pathway in this cell line. […]
(§3) cells, and the effects of ZG0163 was similar to those of positive control compounds, […]
(§4) In Vitro Inhibitory Effect of ZG0128 on Cell Lines Transfected with Oncogenes and Primary Blood Cells in Patients with Polycythemia Vera
(§5) In vitro cell culture assay was used to determine whether compound ZG0128 […]
(§6) cell line harboring a JAK2V617F mutation, and 8 HCD-57 cell lines stably transfected with oncogenic mutations JAK2V617F, MPLW515L, KITD816V, NPM-ALK, FLT3-ITD, FLT3D835H, FLT3D835Y and KRasG12V, respectively. In addition, study the inhibitory effects of compound ZG0128 on the growth of hematopoietic progenitor cells in patients with polycythemia vera.
(§7) 9 cell lines were similar to those of positive control drug ZG0192. At the sub-micromolar concentration, both compounds ZG0128 and ZG0192 were able to […]
(§8) the growth of HCD-57 cells transfected with oncogenic mutations JAK2V617F, […]
(§9) spectrum inhibitory effect on tyrosine kinases. […]

[2] = Metabolic stability in liver microsomes; type: in vitro ADME, rat
Protocol: The metabolic stability of ZG0128 (the dihydrochloride monohydrate of ZG0163) was evaluated using human, monkey, dog, rat, and mouse liver microsomes as the in vitro models. The percentages of residues for ZG0128 after incubating in human, monkey, dog, rat, and mouse liver microsomes for 60 minutes was 55.5%, 63.1%, 67.1%, 80.3%, and 79.0%, respectively. The CLint values of in vivo clearance were calculated to be 24.1, 21.6, 33.4, 10.7, 26.0 mL/min/kg, respectively. Thus its was speculated that ZG0128 was a medium clearance drug in humans, monkeys, and mice, a high clearance drug in dogs, and a low clearance drug in rats.
Using UPLC-UV/Q-TOF MS, the potential metabolites of ZG0128 in various liver microsomes (human, monkey, dog, rat and mouse liver microsomes) incubation systems were identified and the metabolic pathways of ZG0128 were speculated. The main metabolite of ZG0128 in above five types of liver microsomes were primary alcohol metabolite formed by morpholine ring-opening (M3). […]

[3] = Treatment-related AEs (NCI CTCAE), MAD cohorts; type: in vivo, human
Protocol: MAD study was conducted after evaluating the tolerance of the single dose 100 mg cohort. In MAD part, volunteers were designed into five cohorts (100 mg q24h, 150 mg q24h, 100 mg q12h, 200 mg q24h, 150 mg q12h). […] The MAD part was initiated after the safety and tolerance evaluation from SAD 100 mg cohorts. Progression to higher MAD doses was allowed after review the safety data of the prior MAD cohorts.
Dose-limiting toxicities (DLTs) were defined according to the NCI CTCAE v.4.03 as any occurrence of the following drug-related adverse events (AEs): more than one third of volunteers suffered Grade ≥4 drug-related hematological toxicities or Grade ≥3 drug-related nonhematological toxicities; one drug-related serious adverse events (SAEs).

[4] = tested on: cells transformed by selected oncogenic mutants of tyrosine kinases; test: Inhibition of transformed cells; type: cell-based
[5] = tested on: Ba/F3-EpoR-JAK2V617F cells; test: Cell activity of mutant Ba/F3-EpoR-JAK2V617F; type: cell-based; details: read-out: IC50, inhibition of cell activity
Text: Suzhou Zelgen Biopharmaceuticals Co., Ltd. Jaktinib Hydrochloride Tablets Chemical Drug Class 1 New Drug has been completed. The ongoing toxicity tests include a long-term 39-week toxicity test in Beagle dogs by oral administration, a reproductive toxicity test in rats during the teratogenic sensitive period, and a reproductive toxicity test in rabbits during the teratogenic sensitive period.
Preclinical Pharmacodynamic Study
Study on the in vitro Pharmacodynamic Effects of ZG0163 at the […]
In this study, the effects of ZG0163 was similar to those of positive control compounds, ZG0164 and ZG0178.
Study on the in vitro Pharmacodynamic Effects of ZG0163 at the Cellular Level (Ba/F3-EpoR-JAK2V617F cells)
JAK2V617F cell line, the compound ZG0163 was able to induce apoptosis of pathogenic cells and eliminate abnormal cell proliferation by inhibiting the JAK-STAT signaling pathway, thus achieving treatment efficacy in myeloproliferative neoplasms. […]
cell line, manifested as significant inhibition of phosphorylation of JAK2 and its downstream signaling proteins ERK and STAT5. The effects of ZG0163 was similar to those of positive control compounds, ZG0164 and ZG0178.
EpoR-JAK2V617F, which was similar to those of positive control compounds, ZG0164 […]
and ZG0178. However, the inhibitory effect on the activity of Ba/F3-EpoR cell line […]
respectively. […]

Ba/F3-EpoR cell line = test: Cell activity of Ba/F3-EpoR cell line; type: cell-based; details: read-out: IC50, inhibition of cell activity
Text: as §1, §2, §3, §4, §5, §6, §7, §8, §9

## Cl.Cl.O.[2H]C1([2H])COCC([2H])([2H])N1c1ccc(Nc2nccc(-c3ccc(C(=O)NCC#N)cc3)n2)cc1 [ZG0128, Jaktinib Dihydrochloride Monohydrate]
[1]
  colony forming of erythroid hematopoietic cells: almost completely inhibited
[2]
  CLint of in vivo clearance: 10.7 mL/min/kg
  percentage of residue after 60 minutes: 80.3%

## Jaktinib
[3]; MAD jaktinib group
  diarrhea incidence: 22.5%
  dizziness incidence: 17.5%
  leukopenia incidence: 12.5%
[3]; all MAD cohorts
  volunteers with treatment-related AEs: 74.0%
[3]; all cohorts (SAD, MAD, food effect)
  deaths, SAEs and Grade ≥4 AEs: No deaths, SAEs and Grade ≥4 AEs were reported
[3]; in vivo
  Neutropenia incidence: 27.5%
[3]; multiple dose, q24 h
  maximally tolerated dose: 200 mg
[4]
  IC50: 100 nM
[5]
  IC50: 500 nM
Ba/F3-EpoR cell line
  IC50: 1500 nM
